Literature values as cited in patent US9987231B2, “Compositions and methods for delivery of omeprazole plus acetylsalicylic acid” (POZEN INC., priority 2011, dated 2018).

## COc1ccc2[nH]c([S+]([O-])Cc3ncc(C)c(OC)c3C)nc2c1 (racemic) [Omeprazole]
Plasma protein
  Plasma protein binding: about 95%
After repeated dose
  Systemic bioavailability: about 60%
In vivo, po
  Orally given dose excreted as metabolites in the urine: About 80%
Small intestine
  Time in which absorption is usually completed: 3 to 6 h
